Source: patent US6583147B1, “Pyrazolopyrimidinone derivatives for the treatment of impotence” (Dong A Pharm Co., Ltd., priority 1998, dated 2003)
pIC50: −log10 of the molar value.

Columns and labels:
[1] = Acute oral toxicity test in rats; conditions: SD, rat, in vivo, 1 g/kg; rats, oral single dose; read-out: lethal dose (LD50) of oral administration
rats = assay: Penile erection test using rats; assay type: in vivo, rat; conditions: oral single dose 10 mg/kg in 0.5% methyl cellulose, observed for 2 hours
[2] = target: T1, Phosphodiesterase-5 enzyme (PDE 5) (Homo sapiens, UniProt O76074); assay: Test for phosphodiesterase-5 (PDE 5) activity; assay type: biochemical; conditions: PDE 5 fraction from human corpus cavernosal tissues
T1 construct: separated by HPLC (Mono Q anion exchange column) with concentration gradient of 0-500 mM NaCl to elute PDE isozymes; from tissue; host or cells: human corpus cavernosal tissue

[3] = target: T2, Phosphodiesterase-3 enzyme (PDE 3) (Oryctolagus cuniculus, UniProt G1ST54); assay: Test for phosphodiesterase-3 (PDE 3) activity; assay type: biochemical; conditions: PDE 3 fraction from platelets of a rabbit
T2 construct: The supernatant was separated by DEAE-cellulose column chromatography (Whatman DE52 bead); from tissue; host or cells: rabbit platelets
T2 sequence (G1ST54 1-1128): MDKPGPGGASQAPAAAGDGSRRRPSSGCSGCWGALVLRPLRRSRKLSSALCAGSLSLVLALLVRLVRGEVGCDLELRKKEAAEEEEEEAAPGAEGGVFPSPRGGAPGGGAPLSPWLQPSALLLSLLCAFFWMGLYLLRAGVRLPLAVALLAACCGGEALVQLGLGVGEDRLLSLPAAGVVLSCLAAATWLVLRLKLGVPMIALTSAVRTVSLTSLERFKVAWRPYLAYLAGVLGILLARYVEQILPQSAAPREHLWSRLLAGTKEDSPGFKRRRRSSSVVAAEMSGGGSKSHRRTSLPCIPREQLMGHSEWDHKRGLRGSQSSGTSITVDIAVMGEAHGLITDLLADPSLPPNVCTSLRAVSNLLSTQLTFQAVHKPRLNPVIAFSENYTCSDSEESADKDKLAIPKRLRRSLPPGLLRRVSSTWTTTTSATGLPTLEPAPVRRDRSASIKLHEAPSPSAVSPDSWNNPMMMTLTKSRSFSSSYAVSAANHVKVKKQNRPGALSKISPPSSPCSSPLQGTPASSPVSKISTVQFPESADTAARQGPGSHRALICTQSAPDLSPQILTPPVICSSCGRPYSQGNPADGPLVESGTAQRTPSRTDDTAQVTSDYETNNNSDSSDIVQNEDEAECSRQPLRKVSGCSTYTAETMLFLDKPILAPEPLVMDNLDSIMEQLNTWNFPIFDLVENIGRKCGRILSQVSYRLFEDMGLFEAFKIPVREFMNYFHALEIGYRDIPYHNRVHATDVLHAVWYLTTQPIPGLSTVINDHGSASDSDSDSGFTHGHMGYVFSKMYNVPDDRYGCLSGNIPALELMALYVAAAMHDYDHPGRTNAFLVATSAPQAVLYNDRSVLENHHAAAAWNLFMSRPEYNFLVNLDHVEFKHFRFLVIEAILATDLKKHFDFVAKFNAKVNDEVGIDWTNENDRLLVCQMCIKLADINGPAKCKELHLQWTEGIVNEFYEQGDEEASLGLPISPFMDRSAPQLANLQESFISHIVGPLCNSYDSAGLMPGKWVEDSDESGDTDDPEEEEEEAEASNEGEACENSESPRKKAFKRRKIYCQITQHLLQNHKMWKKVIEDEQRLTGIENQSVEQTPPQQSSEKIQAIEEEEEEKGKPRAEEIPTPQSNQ
Protocol: Phosphodiesterase-3 enzyme (PDE 3) was separated from platelets of a rabbit. About 60 ml of blood was collected from a puncture of the abdominal artery of a rabbit in heparinized syringes. Platelet-rich plasma was harvested by centrifugation for 5 min at 450×g and further centrifuged for 15 min at 1,200×g to precipitate the platelets. The platelets were resuspended in homogenizing buffer (50 mM Tris-HCl, 1 mM MgCl2, pH 7.4), homogenized at 4° C. and ultrasonicated (30 sec/ml). The homogenized solution was centrifuged (105,000×g) for 1 hr at 4° C. to obtain the supernatant in which PDE was dissolved. The supernatant was separated by DEAE-cellulose column chromatography (Whatman DE52 bead) by using eluent (50 mM Tris-HCl, 3.75mM2-mercaptoethanol, pH 6.0) with concentration gradient of 0-1 M sodium acetate to elute PDE isozymes. The PDE activity was measured on the each column fraction by the following process to separate PDE 3 fraction and the inhibition for PDE 3 of the compounds of formula 1 was measured by using the fraction.
To 1.5 ml tube containing 100 ul of reaction mixture (15 mM Tris-HCl, 5 mM MgCl2, 0.5 mg/ml BSA, pH 7.4) were added appropriate amount of PDE 3 fraction and PDE inhibitor and the solution was mixed well. After [^3H]-cAMP or [^3H]-cGMP (500 nM, 2 uCi/ml) was added, the mixture was reacted in incubator of 30° C. for about 1 hour and the reaction was quenched by putting the tube into boiling water for about 45 seconds to 2 min. The tube was chilled in ice bath for about 5 min. To this tube was added snake venom (1 mg/ml, 100 ul) or 5′-nucleotidase (0.1 unit/tube) and the mixture was reacted in incubator of 37° C. for 10 min and chilled in ice bath. 3 times volume of methanol to the resin was added to the anion exchange resin (Bio-Rad resin, AG1-X2, 200-400 mesh) which had been already washed with 0.5 N HCl, H2O, 0.5 N NaOH, H2O, 0.5 N HCl and H2O in order and adjusted to pH 5. Then 1 ml of the pretreated resin was added to the each tube with vortexing. The mixture was left at 4° C. for 15 min with occasional vortexing and centrifuged (10,000 rpm) for about 5 min to sediment the resin. The supernatant (700 ul) was transferred to a liquid scintillation vial, and mixed with 10 ml of scintillation cocktail. After stabilizing the mixture by leaving it overnight, the radioactivity of the tube was measured by β-counter.

CCOc1ccc(S(=O)(=O)NCc2ccccc2)cc1-c1nc2c(CC(C)C)nn(C)c2c(=O)[nH]1 [Example 2, 5-[2-ethoxy-5-(benzylamidosulfonyl)phenyl]-1-methyl-3-isobutyl-1,6-dihydro-7H-pyrazolo(4,3-d)pyrimidin-7-one]
LD50 [1]: > 1000 mg/kg
PEI (penile erection index) (rats): 533.3 ± 305.5
genital grooming (number of genital groomings) (rats): 5.7 ± 2.5
pIC50 [2]: 7.97
pIC50 [3]: < 3.70

CCCOc1ccc(S(=O)(=O)NC(C)C)cc1-c1nc2c(CCC)nn(C)c2c(=O)[nH]1 [Example 3, 5-[2-propyloxy-5-(isopropylamidosulfonyl)phenyl]-1-methyl-3-propyl-1,6-dihydro-7H-pyrazolo(4,3-d)pyrimidin-7-one]
LD50 [1]: > 1000 mg/kg
PEI (penile erection index) (rats): 233.3 ± 152.8
genital grooming (number of genital groomings) (rats): 2.7 ± 2.1
pIC50 [2]: 8.27
pIC50 [3]: < 3.65

CCCCNS(=O)(=O)c1ccc(OCC)c(-c2nc3c(CCC)nn(C)c3c(=O)[nH]2)c1 [Example 9, 5-[2-ethoxy-5-(butylamidosulfonyl)phenyl]-1-methyl-3-propyl-1,6-dihydro-7H-pyrazolo(4,3-d)pyrimidin-7-one]
LD50 [1]: > 1000 mg/kg
PEI (penile erection index) (rats): 200.0 ± 100.0
genital grooming (number of genital groomings) (rats): 4.7 ± 1.2
pIC50 [2]: 7.97
pIC50 [3]: < 3.65

CCCc1nn(C)c2c(=O)[nH]c(-c3cc(S(=O)(=O)Nc4ccc(C(C)C)cc4)ccc3OCC)nc12 [Example 31, 5-[2-ethoxy-5-(4-isopropylphenylamidosulfonyl)phenyl]-1-methyl-3-propyl-1,6-dihydro-7H-pyrazolo(4,3-d)pyrimidin-7-one]
LD50 [1]: > 1000 mg/kg
PEI (penile erection index) (rats): 300.0 ± 0
genital grooming (number of genital groomings) (rats): 3.3 ± 0.6
pIC50 [2]: 7.51

CCCc1nn(CC)c2c(=O)[nH]c(-c3cc(S(=O)(=O)Nc4ccc(F)cc4)ccc3OCC)nc12 [Example 33, 5-[2-ethoxy-5-(4-fluorophenylamidosulfonyl)phenyl]-1-ethyl-3-propyl-1,6-dihydro-7H-pyrazolo(4,3-d)pyrimidin-7-one]
LD50 [1]: > 1000 mg/kg
PEI (penile erection index) (rats): 233.3 ± 57.7
genital grooming (number of genital groomings) (rats): 2.7 ± 0.6
pIC50 [2]: 7.71
pIC50 [3]: 3.73

CCCc1nn(C)c2c(=O)[nH]c(-c3cc(S(=O)(=O)Nc4ccncc4)ccc3OCC)nc12 [Example 34, 5-[2-ethoxy-5-(4-pyridylamidosulfonyl)phenyl]-1-methyl-3-propyl-1,6-dihydro-7H-pyrazolo(4,3-d)pyrimidin-7-one]
LD50 [1]: > 1000 mg/kg
PEI (penile erection index) (rats): 166.7 ± 57.7
genital grooming (number of genital groomings) (rats): 1.3 ± 0.6
pIC50 [2]: 8.46
pIC50 [3]: 3.74

CCCc1nn(CC)c2c(=O)[nH]c(-c3cc(S(=O)(=O)Nc4ccncc4)ccc3OCC)nc12 [Example 36, 5-[2-ethoxy-5-(4-pyridylamidosulfonyl)phenyl]-1-ethyl-3-propyl-1,6-dihydro-7H-pyrazolo(4,3-d)pyrimidin-7-one]
LD50 [1]: > 1000 mg/kg
PEI (penile erection index) (rats): 200.0 ± 173.2
genital grooming (number of genital groomings) (rats): 1.3 ± 0.6
pIC50 [2]: 8.51

CCCc1nn(C)c2c(=O)[nH]c(-c3cc(S(=O)(=O)Nc4cccnc4)ccc3OCC)nc12 [Example 38, 5-[2-ethoxy-5-(3-pyridylamidosulfonyl)phenyl]-1-methyl-3-propyl-1,6-dihydro-7H-pyrazolo(4,3-d)pyrimidin-7-one]
LD50 [1]: > 1000 mg/kg
PEI (penile erection index) (rats): 233.3 ± 230.9
genital grooming (number of genital groomings) (rats): 2.7 ± 2.9
pIC50 [2]: 8.09
pIC50 [3]: 3.68

CCCOc1ccc(S(=O)(=O)Nc2cccnc2)cc1-c1nc2c(CCC)nn(C)c2c(=O)[nH]1 [Example 39, 5-[2-propyloxy-5-(3-pyridylamidosulfonyl)phenyl)-1-methyl-3-propyl-1,6-dihydro-7H-pyrazolo(4,3-d)pyrimidin-7-one]
LD50 [1]: > 1000 mg/kg
PEI (penile erection index) (rats): 166.7 ± 57.7
genital grooming (number of genital groomings) (rats): 1.3 ± 1.5
pIC50 [2]: 8.94
pIC50 [3]: 4.38

CCCc1nn(CC)c2c(=O)[nH]c(-c3cc(S(=O)(=O)Nc4cccnc4)ccc3OCC)nc12 [Example 40, 5-[2-ethoxy-5-(3-pyridylamidosulfonyl)phenyl]-1-ethyl-3-propyl-1,6-dihydro-7H-pyrazolo(4,3-d)pyrimidin-7-one]
LD50 [1]: > 1000 mg/kg
PEI (penile erection index) (rats): 177.8 ± 203.7
genital grooming (number of genital groomings) (rats): 1.7 ± 1.5
pIC50 [2]: 8.06

CCOc1ccc(S(=O)(=O)Nc2cccnc2)cc1-c1nc2c(CC(C)C)nn(C)c2c(=O)[nH]1 [Example 41, 5-[2-ethoxy-5-(3-pyridylamidosulfonyl)phenyl]-1-methyl-3-isobutyl-1,6-dihydro-7H-pyrazolo(4,3-d)pyrimidin-7-one]
LD50 [1]: > 1000 mg/kg
PEI (penile erection index) (rats): 177.8 ± 203.7
genital grooming (number of genital groomings) (rats): 1.7 ± 1.5
pIC50 [2]: 8.64
pIC50 [3]: 5.00

CCCc1nn(CC)c2c(=O)[nH]c(-c3cc(S(=O)(=O)NCC4CCCN4C)ccc3OCC)nc12 (stereo not drawn) [Example 57]
PEI (penile erection index) (rats): 131.3 ± 128.1
genital grooming (number of genital groomings) (rats): 1.8 ± 1.3
pIC50 [2]: 7.48
pIC50 [3]: 4.32

CCCc1nn(C)c2c(=O)[nH]c(-c3cc(S(=O)(=O)NCC4CCN(C)C4)ccc3OCC)nc12 (stereo not drawn) [Example 59]
PEI (penile erection index) (rats): 150.0 ± 57.7
genital grooming (number of genital groomings) (rats): 1.5 ± 0.6
pIC50 [2]: 6.85
pIC50 [3]: 3.91

CCCc1nn(C)c2c(=O)[nH]c(-c3cc(S(=O)(=O)NCC4CCN(CC)C4)ccc3OCC)nc12 (stereo not drawn) [Example 63]
PEI (penile erection index) (rats): 12.5 ± 25.0
genital grooming (number of genital groomings) (rats): 1.5 ± 0.6
pIC50 [2]: 7.01
pIC50 [3]: 4.28

CCCc1nn(CC)c2c(=O)[nH]c(-c3cc(S(=O)(=O)NCC4CCN(CC)C4)ccc3OCC)nc12 (stereo not drawn) [Example 65]
PEI (penile erection index) (rats): 93.8 ± 94.4
genital grooming (number of genital groomings) (rats): 1.8 ± 1.0
pIC50 [2]: 7.13
pIC50 [3]: 4.49

CCCc1nn(CC)c2c(=O)[nH]c(-c3cc(S(=O)(=O)NCCC4CCCN4C)ccc3OCC)nc12 (stereo not drawn) [Example 69]
PEI (penile erection index) (rats): 225.0 ± 95.7
genital grooming (number of genital groomings) (rats): 2.3 ± 1.0
pIC50 [2]: 7.50
pIC50 [3]: 4.12
